In experiment [1] the target is T1, BTK enzyme (recombinant full-length BTK, hBTK) (Homo sapiens, UniProt Q06187).
T1 construct: recombinant protein from baculovirus-transfected S 19 cells: full-length BTK, 6 HIS-tag cleaved; 6 HIS-tag (cleaved yes); made in house
As to the kind of experiment: Btk enzyme activity assay (LANCE TR-FRET). Format: biochemical. The settings on record: 50 pM hBTK, 25 μM ATP, 60 minute compound and enzyme incubation, concentration range 1 μM to 0.017 nM, read-out: BTK binding IC50. In general terms: Time-resolved FRET reads energy transfer from a long-lived donor to a nearby acceptor.

For experiment [2], the system named is adenosine uptake into HeLa cells. The experiment is described as follows: [3H]Adenosine uptake assay. Format: cell-based. To be noted: Homo sapiens; accumulation of [3H]adenosine into HeLa cells; concentration range 10 μM to 0.032 nM; read-out: ADU inhibition IC50. The method in brief:
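HeLa cells (25 000/well), plated overnight, were preincubated 30 minutes at ambient temperature with compound in HBSS + 5% FBS. Ten-point titrations ran from 10 μM to 0.032 nM final. [3H]adenosine was added from a 500 nM solution for 60 minutes, and uptake was measured by scintillation proximity counting; IC50 came from a 4-parameter fit.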

Molecules are shown by their SMILES.

Usually IC50 stands for the concentration that inhibits the measured activity by half.

T1 sequence (Q06187 whole entry): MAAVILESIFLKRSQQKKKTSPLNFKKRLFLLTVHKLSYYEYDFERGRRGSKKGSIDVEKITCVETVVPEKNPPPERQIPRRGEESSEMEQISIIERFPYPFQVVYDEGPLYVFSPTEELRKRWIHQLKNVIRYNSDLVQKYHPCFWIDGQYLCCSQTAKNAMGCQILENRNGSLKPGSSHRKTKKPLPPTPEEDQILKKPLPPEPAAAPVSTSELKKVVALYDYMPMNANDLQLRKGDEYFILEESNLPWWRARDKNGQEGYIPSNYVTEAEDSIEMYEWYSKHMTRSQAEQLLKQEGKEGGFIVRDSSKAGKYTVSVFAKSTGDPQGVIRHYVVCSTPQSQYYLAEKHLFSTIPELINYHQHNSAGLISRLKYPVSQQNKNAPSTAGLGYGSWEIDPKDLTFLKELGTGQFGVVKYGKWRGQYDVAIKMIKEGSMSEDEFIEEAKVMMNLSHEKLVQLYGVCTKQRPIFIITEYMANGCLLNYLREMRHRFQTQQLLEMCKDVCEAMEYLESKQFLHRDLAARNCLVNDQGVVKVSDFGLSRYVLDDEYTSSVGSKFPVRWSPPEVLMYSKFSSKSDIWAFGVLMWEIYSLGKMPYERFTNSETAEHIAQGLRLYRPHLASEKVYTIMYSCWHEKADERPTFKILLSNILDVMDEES

Turning to `C[C@H]1CO[C@@H](c2nc(-c3ccc(C(=O)Nc4cc(C5CC5)ccn4)cc3F)c3c(N)ncc(Cl)n23)CN1C1CCOCC1` [Example 44, 4-{8-amino-5-chloro-3-[(2R,5S)-5-methyl-4-(tetrahydro-2H-pyran-4-yl)morpholin-2-yl]imidazo[1,5-a]pyrazin-1-yl}-N-(4-cyclopropylpyridin-2-yl)-3-fluorobenzamide], the IC50 worked out at 0.358 nM in experiment [1] and 362 nM in experiment [2].
In the same order, the values of `C[C@H](O)C(=O)N1C[C@H](c2nc(-c3ccc(C(=O)Nc4cc(C(F)(F)F)ccn4)cc3)c3c(N)ncc(Cl)n23)OC[C@@H]1C` [Example 45, 4-(8-amino-5-chloro-3-{(2R,5S)-4-[(2S)-2-hydroxypropanoyl]-5-methylmorpholin-2-yl}imidazo[1,5-a]pyrazin-1-yl)-N-[4-(trifluoromethyl)pyridin-2-yl]benzamide] are 0.68 nM and 512 nM.
In the same order, the values of `COc1cc(C(=O)Nc2cc(C(F)(F)F)ccn2)ccc1-c1nc([C@H]2CN(C3CCOCC3)[C@@H](C)CO2)n2c(Cl)cnc(N)c12` [Example 46, 4-{8-amino-5-chloro-3-[(2R,5S)-5-methyl-4-(tetrahydro-2H-pyran-4-yl)morpholin-2-yl]imidazo[1,5-a]pyrazin-1-yl}-3-methoxy-N-[4-(trifluoromethyl)pyridin-2-yl]benzamide] are 1.94 nM and 2160 nM.
In the same order, the values of `COc1cc(C(=O)Nc2cc(C(F)(F)F)ccn2)ccc1-c1nc([C@H]2CN(C(=O)C3CC3)[C@@H](C)CO2)n2c(Cl)cnc(N)c12` [Example 47, 4-{8-amino-5-chloro-3-[(2R,5S)-4-(cyclopropylcarbonyl)-5-methylmorpholin-2-yl]imidazo[1,5-a]pyrazin-1-yl}-3-methoxy-N-[4-(trifluoromethyl)pyridin-2-yl]benzamide] are 5.59 nM and 6090 nM.
Consider `C[C@H]1CO[C@@H](c2nc(-c3ccc(C(=O)Nc4cc(C(F)(F)F)ccn4)cc3F)c3c(N)ncc(Cl)n23)CN1C1CCOCC1` [Example 48, 4-{8-amino-5-chloro-3-[(2R,5S)-5-methyl-4-(tetrahydro-2H-pyran-4-yl)morpholin-2-yl]imidazo[1,5-a]pyrazin-1-yl}-3-fluoro-N-[4-(trifluoromethyl)pyridin-2-yl]benzamide], for which the values for the half-maximal inhibitory concentration (IC50) in experiment [1] and in experiment [2] were 0.303 nM and 397 nM, respectively.
`COc1cc(C(=O)Nc2cc(C(F)(F)F)ccn2)ccc1-c1nc([C@H]2CN(C(=O)C3CCOCC3)[C@@H](C)CO2)n2ccnc(N)c12` [Example 49, 4-{8-amino-3-[(2R,5S)-5-methyl-4-(tetrahydro-2H-pyran-4-ylcarbonyl)morpholin-2-yl]imidazo[1,5-a]pyrazin-1-yl}-3-methoxy-N-[4-(trifluoromethyl)pyridin-2-yl]benzamide]: the values for the IC50 in experiment [1] and in experiment [2] were 1.74 nM and 1780 nM, respectively.
`COCCC(=O)N1C[C@H](c2nc(-c3ccc(C(=O)Nc4cc(C(F)(F)F)ccn4)cc3OC)c3c(N)nccn23)OC[C@@H]1C` [Example 50, 4-{8-amino-3-[(2R,5S)-4-(3-methoxypropanoyl)-5-methylmorpholin-2-yl]imidazo[1,5-a]pyrazin-1-yl}-3-methoxy-N-[4-(trifluoromethyl)pyridin-2-yl]benzamide]: the results for the IC50 in experiment [1] and in experiment [2] were 2.17 nM and 2260 nM, respectively.
For `COc1cc(C(=O)Nc2cc(C(F)(F)F)ccn2)ccc1-c1nc([C@H]2CN(C(=O)[C@H](C)OC)[C@@H](C)CO2)n2ccnc(N)c12` [Example 51, 4-(8-amino-3-{(2R,5S)-4-[(2S)-2-methoxypropanoyl]-5-methylmorpholin-2-yl}imidazo[1,5-a]pyrazin-1-yl)-3-methoxy-N-[4-(trifluoromethyl)pyridin-2-yl]benzamide] the same measures were 4.31 nM and 1410 nM.
For `COc1cc(C(=O)Nc2cc(C(F)(F)F)ccn2)ccc1-c1nc([C@H]2CN(C(=O)[C@H](C)O)[C@@H](C)CO2)n2ccnc(N)c12` [Example 52, 4-(8-amino-3-{(2R,5S)-4-[(2S)-2-hydroxypropanoyl]-5-methylmorpholin-2-yl}imidazo[1,5-a]pyrazin-1-yl)-3-methoxy-N-[4-(trifluoromethyl)pyridin-2-yl]benzamide] the same measures were 2.26 nM and 1990 nM.
In the same order, the values of `COc1cc(C(=O)Nc2cc(C(F)(F)F)ccn2)ccc1-c1nc([C@H]2CN(Cc3[nH]cnc3C)[C@@H](C)CO2)n2ccnc(N)c12` [Example 53, 4-(8-amino-3-{(2R,5S)-5-methyl-4-[(4-methyl-1H-imidazol-5-yl)methyl]morpholin-2-yl}imidazo[1,5-a]pyrazin-1-yl)-3-methoxy-N-[4-(trifluoromethyl)pyridin-2-yl]benzamide] are 5.8 nM and 1030 nM.
In the case of `COc1cc(C(=O)Nc2cc(C(F)(F)F)ccn2)ccc1-c1nc([C@H]2CN(Cc3cnn(C)c3)[C@@H](C)CO2)n2ccnc(N)c12` [Example 54, 4-(8-amino-3-{(2R,5S)-5-methyl-4-[(1-methyl-1H-pyrazol-4-yl)methyl]morpholin-2-yl}imidazo[1,5-a]pyrazin-1-yl)-3-methoxy-N-[4-(trifluoromethyl)pyridin-2-yl]benzamide], the half-maximal inhibitory concentration (IC50) in experiment [1] turned out to be 2.28 nM; in experiment [2] it was 1650 nM.
Take `COc1cc(C(=O)Nc2cc(C(F)(F)F)ccn2)ccc1-c1nc([C@H]2CN(C3COC3)[C@@H](C)CO2)n2ccnc(N)c12` [Example 55, 4-{8-amino-3-[(2R,5S)-5-methyl-4-oxetan-3-ylmorpholin-2-yl]imidazo[1,5-a]pyrazin-1-yl}-3-methoxy-N-[4-(trifluoromethyl)pyridin-2-yl]benzamide]: the IC50 in experiment [1] worked out at 2.54 nM; in experiment [2], 2060 nM.
As for `C[C@H]1CO[C@@H](c2nc(-c3ccc(C(=O)Nc4ccccn4)cc3)c3c(N)nccn23)CN1C1CCOCC1` [Example 57, 4-{8-amino-3-[(2R,5S)-5-methyl-4-(tetrahydro-2H-pyran-4-yl)morpholin-2-yl]imidazo[1,5-a]pyrazin-1-yl}-N-pyridin-2-ylbenzamide], the IC50 in experiment [1] came to 26.7 nM; in experiment [2], 1020 nM.
For `COc1cc(C(=O)Nc2cc(C(F)(F)F)ccn2)ccc1-c1nc([C@H]2CN(C3CCOCC3)[C@@H](C)CO2)n2ccnc(N)c12` [Example 60, 4-{8-amino-3-[(2R,5S)-5-methyl-4-(tetrahydro-2H-pyran-4-yl)morpholin-2-yl]imidazo[1,5-a]pyrazin-1-yl}-3-methoxy-N-[4-(trifluoromethyl)pyridin-2-yl]benzamide] the same measures were 1.57 nM and 1620 nM.
For `C[C@H]1CO[C@@H](c2nc(-c3ccc(C(=O)Nc4cc(C5CC5)ccn4)cc3F)c3c(N)nccn23)CN1C1CCOCC1` [Example 61, 4-{8-amino-3-[(2R,5S)-5-methyl-4-(tetrahydro-2H-pyran-4-yl)morpholin-2-yl]imidazo[1,5-a]pyrazin-1-yl}-N-(4-cyclopropylpyridin-2-yl)-3-fluorobenzamide] the same measures were 0.814 nM and 386 nM.
In the same order, the values of `C[C@H]1CO[C@@H](c2nc(-c3ccc(C(=O)Nc4ccccn4)cc3)c3c(N)nccn23)CN1C(=O)C1CC1` [Example 62, 4-{8-amino-3-[(2R,5S)-4-(cyclopropylcarbonyl)-5-methylmorpholin-2-yl]imidazo[1,5-a]pyrazin-1-yl}-N-pyridin-2-ylbenzamide] are 10.8 nM and 256 nM.
In the case of `Nc1nccn2c([C@H]3CN(C(=O)C4CC4)[C@H](CO)CO3)nc(-c3ccc(C(=O)Nc4cc(C(F)(F)F)ccn4)cc3F)c12` [Example 63, 4-{8-amino-3-[(2R,5R)-4-(cyclopropylcarbonyl)-5-(hydroxymethyl)morpholin-2-yl]imidazo[1,5-a]pyrazin-1-yl}-3-fluoro-N-[4-(trifluoromethyl)pyridin-2-yl]benzamide], the half-maximal inhibitory concentration (IC50) in experiment [1] turned out to be 5.28 nM; in experiment [2], 48.5 nM.
Regarding `Cn1cc(CN2C[C@H](c3nc(-c4ccc(C(=O)Nc5cc(C(F)(F)F)ccn5)cc4F)c4c(N)nccn34)OC[C@H]2CO)cn1` [Example 64, 4-(8-amino-3-{(2R,5R)-5-(hydroxymethyl)-4-[(1-methyl-1H-pyrazol-4-yl)methyl]morpholin-2-yl}imidazo[1,5-a]pyrazin-1-yl)-3-fluoro-N-[4-(trifluoromethyl)pyridin-2-yl]benzamide], the 50% inhibitory concentration (IC50) was 4.33 nM in experiment [1] and 260 nM in experiment [2].
For `Nc1nccn2c([C@H]3CN(C4CCOCC4)[C@H](CO)CO3)nc(-c3ccc(C(=O)Nc4cc(C(F)(F)F)ccn4)cc3F)c12` [Example 65, 4-{8-amino-3-[(2R,5R)-5-(hydroxymethyl)-4-(tetrahydro-2H-pyran-4-yl)morpholin-2-yl]imidazo[1,5-a]pyrazin-1-yl}-3-fluoro-N-[4-(trifluoromethyl)pyridin-2-yl]benzamide] the same measures were 6.78 nM and 136 nM.
In the same order, the values of `Nc1nccn2c([C@H]3CN(C4COC4)[C@H](CO)CO3)nc(-c3ccc(C(=O)Nc4cc(C(F)(F)F)ccn4)cc3F)c12` [Example 66, 4-{8-amino-3-[(2R,5R)-5-(hydroxymethyl)-4-oxetan-3-ylmorpholin-2-yl]imidazo[1,5-a]pyrazin-1-yl}-3-fluoro-N-[4-(trifluoromethyl)pyridin-2-yl]benzamide] are 1.23 nM and 24.6 nM.
In the same order, the values of `Nc1nccn2c([C@H]3CN[C@H](CO)CO3)nc(-c3ccc(C(=O)Nc4cc(C(F)(F)F)ccn4)cc3F)c12` [Example 67, 4-{8-amino-3-[(2R,5R)-5-(hydroxymethyl)morpholin-2-yl]imidazo[1,5-a]pyrazin-1-yl}-3-fluoro-N-[4-(trifluoromethyl)pyridin-2-yl]benzamide] are 1.97 nM and 129 nM.

Source of the values: patent US20170349593A1, “BTK INHIBITORS” (MERCK SHARP & DOHME CORP., priority 2014, published 2017).
